Values of other authors, collected in patent publication US20130028992A1, “Herbal-Based Solution for Treating Symptoms of Nasal Conditions” (priority 2011, published 2013).

Legend:
[1] = tested on: 25 strains of yeast, bacteria and mold
[2] = tested on: platelet aggregation; settings: case of a heart attack

SMILES | antimicrobial effect of vapor [1] | time required to take effect [2]
C=CCN=C=S [allyl isothiocyanate] | can combat 25 strains of yeast, bacteria and mold to varying degrees | 
CC(=O)Oc1ccccc1C(=O)O [aspirin] |  | thirty
